Experimental data: the OPERA property sets (Mansouri et al. 2018)

Details: not given

Structure (SMILES) | boiling point | log10 Koc (L/kg) | log10 vapour pressure (mmHg) | melting point | ready biodegradability | log10 Henry constant (atm·m³/mol) | log10 Koa
COP(=O)(OC)OC=C(Cl)Cl | 234 °C | 1.67 | -1.8 | -60 °C | readily biodegradable |  | 
Cc1cc(O)c(Cl)c(C)c1Cl |  |  |  | 83 °C |  |  | 
O=C(NCO)NCO |  |  |  | 126 °C |  |  | 
CC(C)(Cl)C=O | 90 °C |  |  |  |  |  | 
Cc1ccc(N)nc1 | 227 °C |  |  | 76.5 °C |  |  | 
c1ccc(Cc2c3ccccc3c(Cc3ccccc3)c3ccccc23)cc1 |  |  |  | 246 °C |  |  | 
Brc1cn[nH]c1 | 255 °C |  |  | 94.5 °C |  |  | 
O=[N+]([O-])c1ccc2[nH]cnc2c1 |  |  |  | 208 °C | not readily biodegradable |  | 
CCCCCCCCC=CCCCCCCCC(=O)Nc1ccccc1 |  |  |  | 41 °C |  |  | 
C=CCC1(C(C)CCC)C(=O)NC(=O)NC1=O (stereo not given) |  |  |  | 100 °C |  |  | 
c1ccc(N2CCNCC2)cc1 | 286 °C |  | -2.26 |  |  |  | 
CC(=O)Nc1ccc(Cl)c(Cl)c1 |  | 2.34 |  |  |  |  | 
CC(=O)Oc1ccc(OC(C)=O)c(OC(C)=O)c1 | 300 °C |  |  |  |  |  | 
C#C[C@]1(O)C=C[C@H]2[C@@H]3CCC4=CC(=O)CC[C@@H]4[C@H]3CC[C@@]21CC |  |  |  | 198 °C |  |  | 
OCCc1ccccn1 |  | 1.45 |  | -7.8 °C |  |  | 
O=C(Cl)c1ccccc1O |  |  |  | 19 °C |  |  | 
NCC1CCCCC1 | 160 °C |  |  |  |  |  | 
BrCc1ccccc1CBr |  |  |  | 95 °C |  |  | 
O=C1CCCCCCN1 |  |  |  | 36.5 °C |  |  | 
CCCCCCCCCCCC#N | 277 °C |  | -2.63 | 4 °C |  |  | 
O=P(O)(O)c1ccccc1 |  |  |  | 164 °C |  |  | 
Cc1cccc(-c2cccc(C)c2)c1 | 280 °C |  |  | 9 °C |  |  | 
Cc1ccnc(N)n1 |  |  |  | 160 °C |  |  | 
COC(=O)C1(S(=O)(=O)c2ccccc2)CC1 |  |  |  | 74.5 °C |  |  | 
CC(Cc1ccccc1)c1ccccc1 (stereo not given) | 280 °C |  |  | 52 °C |  |  | 
CC(CO)(CO)[N+](=O)[O-] |  |  |  | 150 °C |  |  | 

Structure (SMILES) | boiling point | log10 Koc (L/kg) | log10 vapour pressure (mmHg) | melting point | ready biodegradability | log10 Henry constant (atm·m³/mol) | log10 Koa
CC(C)[C@H](C)CC[C@@H](C)[C@H]1CC[C@H]2[C@@H]3CC=C4C[C@@H](O)CC[C@]4(C)[C@H]3CC[C@]12C |  |  |  | 158 °C |  |  | 
COC1(C)CC(c2ccccc2)c2c(c3ccccc3oc2=O)O1 (stereo not given) |  |  |  | 166 °C |  |  | 
C[N+]1(CCC(O)(c2ccccc2)c2cccs2)CCOCC1.[I-] (stereo not given) |  |  |  | 190 °C |  |  | 
CCCCCOC | 99 °C |  |  |  |  |  | 
CC1CCC2CC1C2(C)C (stereo not given) | 160 °C |  |  |  |  |  | 
O=C(OOC(=O)c1ccccc1)c1ccccc1 |  |  |  | 105 °C | readily biodegradable |  | 
O=C(O)CCCCCCCCCCCC(=O)O |  |  |  | 111 °C |  |  | 
CC(C)(C)C(C)(C)C | 106 °C |  | 1.32 | 101 °C |  |  | 
CCCC(=O)OCc1ccco1 | 212 °C |  |  |  |  |  | 
CCOP(=O)(Sc1ccccc1)Sc1ccccc1 |  |  | -6.57 |  |  |  | 
CCOC(=O)CC[C@H](N)C(=O)OCC.Cl |  |  |  | 109 °C |  |  | 
O=[N+]([O-])c1ccc(Cc2ccncc2)cc1 |  |  |  | 71 °C |  |  | 
CC(CO)CO | 195 °C |  | -1.68 | -91 °C |  |  | 
O=C1C(=O)c2ccccc2C(Cl)=C1Cl |  |  |  | 184 °C |  |  | 
CC(C)CCCCCCCCCCCO |  |  |  | 10.5 °C |  |  | 
CCCN(CCC)C(C)=O | 210 °C |  |  |  |  |  | 
C=CC(=O)OCC(F)(F)C(F)F | 132 °C |  |  |  |  |  | 
C(CCOCC1CO1)COCC1CO1 (stereo not given) | 266 °C |  |  |  | not readily biodegradable |  | 
Cc1cc(C)nc(Nc2ccccc2)n1 |  |  | -4.78 | 96.3 °C |  |  | 
CC(CBr)c1ccccc1 (stereo not given) | 188 °C |  |  | -59.3 °C |  |  | 
CCCCCCCCCCCN | 242 °C |  |  | 17 °C |  |  | 
O=C(O)[C@H](O)[C@@H](O)C(=O)O (racemic) |  |  |  | 174 °C |  |  | 
C=CCCCCC | 93.6 °C |  | 1.77 | -120 °C |  |  | 
N#Cc1c[nH]c2ccccc12 |  |  |  | 180 °C |  |  | 
CC(=O)CCCCC(C)=O |  |  |  | 44 °C |  |  | 
C=C(C)CN(CC)c1c([N+](=O)[O-])cc(C(F)(F)F)cc1[N+](=O)[O-] |  | 3.6 | -4.06 | 55.5 °C |  |  | 

Structure (SMILES) | boiling point | log10 Koc (L/kg) | log10 vapour pressure (mmHg) | melting point | ready biodegradability | log10 Henry constant (atm·m³/mol) | log10 Koa
CC1CCCC(C)N1C(=O)COC(=O)c1ccccc1 (stereo not given) |  |  |  | 118 °C |  |  | 
Clc1ccc(-c2cc(Cl)c(Cl)cc2Cl)c(Cl)c1 |  |  | -4.66 |  |  | -4.11 | 
Cc1ccc(C(F)(F)F)cc1 | 129 °C |  |  |  |  |  | 
Cc1cc(-c2cc(C)c(OCC3CO3)c(C)c2)cc(C)c1OCC1CO1 (stereo not given) |  |  |  |  | not readily biodegradable |  | 
COc1cc(NS(=O)(=O)c2ccc(N)cc2)nc(C)n1 |  |  |  | 146 °C |  |  | 
C[Si](C)(C)CCCO | 141 °C |  |  |  |  |  | 
Ic1ccc(-c2ccccc2)cc1 | 320 °C |  |  | 114 °C |  |  | 
CCCCCCCCCCCCCCCCCC(C)=O |  |  |  | 57 °C |  |  | 
ClC(Cl)(Cl)C(Cl)(Cl)Cl |  |  | -0.678 | 187 °C | not readily biodegradable | -2.41 | 4.47
CCCCCCC(Br)CBr (stereo not given) | 241 °C |  |  |  |  |  | 
O=C(O)Cc1cc(O)ccc1O |  |  |  | 153 °C |  |  | 
ClC1(Cl)C2(Cl)C3(Cl)C4(Cl)C(Cl)(Cl)C5(Cl)C3(Cl)C1(Cl)C5(Cl)C24Cl (stereo not given) |  | 6 | -6.1 |  |  | -3.09 | 
C1=CC2C3C=CC(C3)C2C1 (stereo not given) | 170 °C |  | 0.361 | 15.5 °C | not readily biodegradable |  | 
CCOC(=O)C(C(=O)OCC)C(=O)OCC | 253 °C |  |  | 29 °C |  |  | 
CC(O)C(C)O (racemic) | 182 °C |  | -0.677 | 16.3 °C |  |  | 
CC(N)c1ccccc1 (stereo not given) | 185 °C |  |  |  |  |  | 
Oc1cccc(O)c1O | 309 °C |  | -3.32 | 133 °C | readily biodegradable |  | 
O=[N+]([O-])c1cc([N+](=O)[O-])c2ccccc2c1O |  |  |  | 131 °C |  |  | 
CCOc1ccc(C(=O)OCCN(CC)CC)cc1 |  |  |  | 173 °C |  |  | 
CCC(=O)O[C@H]([C@H](C)[C@H]1O[C@@]2(CC[C@@](C)([C@H]3CC[C@@](C)(C4O[C@@H]([C@H]5O[C@@](O)(CO)[C@H](C)C[C@@H]5C)C[C@@H]4C)O3)O2)C[C@H](O)[C@H]1C)[C@@H](C)C(=O)O (stereo not given in full) |  |  |  | 152 °C |  |  | 
CC(=O)Nc1ccc(S(=O)(=O)Nc2ccc([N+](=O)[O-])cc2)cc1 |  |  |  | 240 °C |  |  | 
Cc1ccc(Cl)c(O)c1Cl | 237 °C |  |  | 28 °C |  |  | 
O=C1OC(=O)c2c(F)c(F)c(F)c(F)c21 |  |  |  | 95 °C |  |  | 
C/C(=C(\CCOC(=O)c1ccccc1)SS/C(CCOC(=O)c1ccccc1)=C(/C)N(C=O)Cc1cnc(C)nc1N)N(C=O)Cc1cnc(C)nc1N |  |  |  | 146 °C |  |  | 
O=C=Nc1cccc(Cl)c1 |  |  | -0.712 | -4 °C |  |  | 
O=[N+]([O-])/N=C1\NCCN1Cc1ccc(Cl)nc1 |  |  |  | 144 °C |  |  | 

Structure (SMILES) | boiling point | log10 Koc (L/kg) | log10 vapour pressure (mmHg) | melting point | ready biodegradability | log10 Henry constant (atm·m³/mol) | log10 Koa
C=C(C)CCl | 71.5 °C |  | 2.01 |  | readily biodegradable |  | 
Nc1ncnc2c1ncn2[C@]1(CO)O[C@H](CO)[C@@H](O)[C@H]1O |  |  |  | 212 °C |  |  | 
O=C(OCCOc1ccc(Cl)cc1Cl)c1ccccc1 |  |  |  | 66 °C |  |  | 
O=C(O)CCN1C(=O)C=CC1=O |  |  |  | 104 °C |  |  | 
NS(=O)(=O)c1ccc(SCCO)c([N+](=O)[O-])c1 |  |  |  | 151 °C |  |  | 
CC(Oc1ccccc1Cl)C(=O)O (stereo not given) |  |  |  | 114 °C |  |  | 
CCN(CC)CCNC(=O)c1cc(Cl)c(N)cc1OC |  |  |  | 147 °C |  |  | 
CCOC(=O)c1ccc(-c2ccc(C(=O)OCC)c(C(=O)OCC)c2)cc1C(=O)OCC |  |  |  |  | readily biodegradable |  | 
CN(C)c1ccc(C=O)cc1 |  |  | -2.43 | 74.5 °C |  |  | 
CCc1nc(C)c[nH]1 | 294 °C |  |  | 50.5 °C |  |  | 
Cc1cc(Cl)c2ccccc2n1 | 270 °C |  |  | 42.5 °C |  |  | 
CCOc1ccc(C=O)cc1OCC | 279 °C |  |  | 22 °C |  |  | 
CCCCCC1CCCC1 | 180 °C |  |  | -83 °C |  |  | 
c1cc2c3c(c1)ccc1cccc(c13)C2 | 353 °C |  |  | 114 °C |  |  | 
O=C(O)c1cc(Cl)ccc1[N+](=O)[O-] |  |  |  | 139 °C |  |  | 
NC(=O)CCl | 225 °C |  |  | 121 °C |  |  | 
CCCCl | 46.5 °C |  | 2.54 | -123 °C |  |  | 2.24
c1ccc(Cc2ccccc2)cc1 | 265 °C |  | -2.09 | 25.2 °C | not readily biodegradable |  | 
CCc1ccc(CC)c(CC)c1 | 218 °C |  |  |  |  |  | 
CC(Br)C(=O)c1ccccc1 (stereo not given) | 248 °C |  |  |  |  |  | 
C[N+]1(C)CCCCC1 |  | 6 |  |  |  |  | 
Cc1cccc(Cl)c1Cl | 208 °C |  |  | 6 °C |  |  | 
CCOC(=O)C(C(=O)OCC)C(C(=O)OCC)C(=O)OCC |  |  |  | 77 °C |  |  | 

Same assay, conditions: fish

Structure (SMILES) | log10 BCF | log10 biotransformation half-life (days)
COP(=O)(OC)OC=C(Cl)Cl | -0.3 | 
O=[N+]([O-])c1ccc2[nH]cnc2c1 | 0.4 | -1.15
CCOP(=O)(Sc1ccccc1)Sc1ccccc1 | 1.51 | -1.04
Clc1ccc(-c2cc(Cl)c(Cl)cc2Cl)c(Cl)c1 |  | 2.73
ClC(Cl)(Cl)C(Cl)(Cl)Cl | 2.71 | 0.76
ClC1(Cl)C2(Cl)C3(Cl)C4(Cl)C(Cl)(Cl)C5(Cl)C3(Cl)C1(Cl)C5(Cl)C24Cl (stereo not given) | 4.31 | 1.8
C1=CC2C3C=CC(C3)C2C1 (stereo not given) | 2.34 | 
CC(N)c1ccccc1 (stereo not given) | 0.82 | 
c1ccc(Cc2ccccc2)cc1 | 2.94 | 
